Measurements as given in patent US20120016010A1, “RNA Interference Mediated Inhibition of BTB and CNC Homology 1, Basic Leucine Zipper Transcription Factor 1 (BACH1) Gene Expression Using Short Interfering Nucleic Acid (siNA)” (Merck Sharp & Dohme Corp, priority 2009, published 2012).

Experiments:
Format in all cases: cell-based
[1] = tested on: human GAPDH mRNA transcript; test: GAPDH specificity screen in human A549 cells; settings: Table 5; 1 nM siNA, STAT 4 as endogenous control, relative to universal control siNA
Description: To evaluate the expression level and % knock-down of GAPDH, STAT 4 gene was used as an endogenous control to calculate ΔCt for siNA treated samples and the universal control:
STAT 4 gene was selected as an internal normalizer based on its relatively consistent expression across 49 test samples in three independent experiments. ΔΔCt, Relative expression level and % KD were calculated as described above.
The specificity of these siNAs was also assessed. These siNAs were tested at a lower concentration (1 nM versus the original screening concentration of 10 nM) to determine the effect of the Bach1 siNAs on the mRNA transcript of human GAPDH.

HMOX1 mRNA = test: HMOX1 (HO-1) mRNA upregulation in human bronchial epithelial cells (NHBE); settings: 48 hours post transfection, mean of 3 donors
Description: Human Bronchial Epithelial cells (NHBE cells) obtained from Lonza (Cat. No. CC-2540) were grown at 37deg in the presence of 5% CO2 and cultured in BEBM basal medium (Lonza, Cat. No. CC-3171) on Biocoat Collagen1 coated flasks (Becton Dickinson). NHBE cells were plated in collagen 1 coated plates and cultured in appropriate culture media. The cells were cultured for 24 hours after plating at 37 degrees in the presence of 5% CO2. siNAs were diluted in OptiMEM 1 to 1 uM and the transfection agent to 25 ug/ml. For formulation of the siNAs equal volumes of the diluted siNA and delivery lipid were combined and incubated for 20 minutes at room temperature. Cells were meanwhile trypsinised and resuspended in antibiotic free BEBM media at 150,000 cells/ml. 20 ul of the formulated siNA and 80 ul of BEBM media was added per well of a 96 well plate (6 replicates/data point/siNA concentration) so as to give a nine point dose range of the siNAs (100 nM, 30 nM, 10 nM, 3 nM, 1 nM, 0.3 nM, 0.1 nM, 0.03 nM, 0.01 nM). The time of incubation with the transfection-siNA complexes were 48 hours with one change of media at 24 hours. Total RNA was isolated from the cells in the 96-well plate format using the Automated SV96 Total RNA Isolation System (Promega) according to the manufacturer's instructions. The Biomek 2000 Laboratory Automation Workstation (Beckman Coulter) was used to apply the transfected cell lysates to a silica membrane. RNase-Free DNase I was then applied directly to the silica membrane to digest contaminating genomic DNA. The bound total RNA was further purified from contaminating salts, proteins and cellular impurities by simple washing steps. Finally, total RNA was eluted from the membrane by the addition of Nuclease-Free Water. A series of probes and primers were used for the detection of mRNA transcripts of Bach1, OAS1, IL8 and GAPDH (as control/normalisation) in the human cell lines. The assays were performed on an ABI 7900HT instrument according to the manufacturer's instructions. Primer Probe sets used: With Taqman data critical threshold values (Ct) were converted to copy numbers corresponding to the particular gene analysed in each well of the 384 well plate. Six identical wells were prepared in each plate for a given treatment. […] Relative abundance (aka relative expression) of a gene was determined by dividing the mean copy number of that gene with its GAPDH counterpart in that particular sample. EC50 values were calculated from the data using sigma plot. All calculations of the efficacy and potency of the siNAs were done relative to the non-targeting control siNA. Percentage knockdown was compared between the four lead siNA's. The data was analysed using an ANOVA test and then the p-values were corrected for multiple comparisons using the False Discovery Rate correction (FDR).

Bach1 mRNA = Bach1 mRNA knockdown and potency in human bronchial epithelial cells (NHBE); settings: 48 hours post transfection, mean of 3 donors; for EC50: Bach1 mRNA knockdown; for Maximum mRNA knockdown: Bach1 mRNA
Description: The siNAs with Duplex ID numbers corresponding to 29961-DC, 29964-DC, 29984-DC, 29988-DC, 29957-DC, 29947-DC, and 29956-DC were tested for maximum Bach1 mRNA knockdown and for potency in human bronchial epithelial cells as follows.
Human Bronchial Epithelial cells (NHBE cells) obtained from Lonza (Cat. No. CC-2540) were grown at 37deg in the presence of 5% CO2 and cultured in BEBM basal medium (Lonza, Cat. No. CC-3171) on Biocoat Collagen1 coated flasks (Becton Dickinson).
NHBE cells were plated in collagen 1 coated plates and cultured in appropriate culture media. The cells were cultured for 24 hours after plating at 37 degrees in the presence of 5% CO2. siNAs were diluted in OptiMEM 1 to 1 uM and the transfection agent to 25 ug/ml. For formulation of the siNAs equal volumes of the diluted siNA and delivery lipid were combined and incubated for 20 minutes at room temperature. Cells were meanwhile trypsinised and resuspended in antibiotic free BEBM media at 150,000 cells/ml. 20 ul of the formulated siNA and 80 ul of BEBM media was added per well of a 96 well plate (6 replicates/data point/siNA concentration) so as to give a nine point dose range of the siNAs (100 nM, 30 nM, 10 nM, 3 nM, 1 nM, 0.3 nM, 0.1 nM, 0.03 nM, 0.01 nM). The time of incubation with the transfection-siNA complexes were 48 hours with one change of media at 24 hours.
Total RNA was isolated from the cells in the 96-well plate format using the Automated SV96 Total RNA Isolation System (Promega) according to the manufacturer's instructions. The Biomek 2000 Laboratory Automation Workstation (Beckman Coulter) was used to apply the transfected cell lysates to a silica membrane. RNase-Free DNase I was then applied directly to the silica membrane to digest contaminating genomic DNA. The bound total RNA was further purified from contaminating salts, proteins and cellular impurities by simple washing steps. Finally, total RNA was eluted from the membrane by the addition of Nuclease-Free Water.
A series of probes and primers were used for the detection of mRNA transcripts of Bach1, OAS1, IL8 and GAPDH (as control/normalisation) in the human cell lines. The assays were performed on an ABI 7900HT instrument according to the manufacturer's instructions. Primer Probe sets used:
With Taqman data critical threshold values (Ct) were converted to copy numbers corresponding to the particular gene analysed in each well of the 384 well plate. Six identical wells were prepared in each plate for a given treatment. […] Determination of the percentage coefficient of variation (CV) (% C.V.=[standard deviation/average]*100) allowed the omitting of wells whose value was an outlier (so that % C.V.<25). Relative abundance (aka relative expression) of a gene was determined by dividing the mean copy number of that gene with its GAPDH counterpart in that particular sample.
EC50 values were calculated from the data using sigma plot. All calculations of the efficacy and potency of the siNAs were done relative to the non-targeting control siNA. Percentage knockdown was compared between the four lead siNA's. The data was analysed using an ANOVA test and then the p-values were corrected for multiple comparisons using the False Discovery Rate correction (FDR).

Row | Substance | % KD GAPDH [1] | EC50 (HMOX1 mRNA) | Maximum HMOX1 upregulation (HMOX1 mRNA) | EC50 (Bach1 mRNA) | Maximum mRNA knockdown (Bach1 mRNA)
1 | 29957-DC (sense GCAGUUACUUCCACUCAAGTT; antisense CUUGAGUGGAAGUAACUGCUU; inverted abasic end caps, TT overhangs, modified nucleotides, further chemistry not given here) | −10 ± 9% | 29.8 nM | 290% | 0.95 nM | 70%
2 | 29956-DC (sense GUCUGAGUGUCCGUGGUUATT; antisense UAACCACGGACACUCAGACUU; inverted abasic caps (B), 2'-modified nucleotides, further chemistry not given here) | −18 ± 15% | 33.1 nM | 2416% | 2.16 nM | 68%
3 | 29961-DC (sense CUACACUGCUAAACUGAUUTT; antisense AAUCAGUUUAGCAGUGUAGUU; inverted abasic end caps, TT overhangs, modified nucleotides, further chemistry not given here) | 7 ± 7% | 50.4 nM | 10266% | 7.87 nM | 80%
4 | 29947-DC (sense GGAAUCCUGCUUUCAGUUUTT; antisense AAACUGAAAGCAGGAUUCCUU; inverted abasic caps (B), 2'-modified nucleotides, further chemistry not given here) | −15 ± 29% | – | 1566% | 4.31 nM | 65%
5 | 29964-DC (sense GAUUUGCAGGUGAUGUUAATT; antisense UUAACAUCACCUGCAAAUCUU; inverted abasic end caps, TT overhangs, modified nucleotides, further chemistry not given here) | 14 ± 2% | 30.3 nM | 4800% | 9.52 nM | 72%
6 | 29984-DC (sense GUUAAAGGAUUUGAACCUUTT; antisense AAGGUUCAAAUCCUUUAACUU; inverted abasic end caps, TT overhangs, modified nucleotides, further chemistry not given here) | – | – | 153% | 23.2 nM | 65%
7 | 29988-DC (sense AUUUGAACCUUUAAUUCAGTT; antisense CUGAAUUAAAGGUUCAAAUUU; inverted abasic end caps, TT overhangs, modified nucleotides, further chemistry not given here) | 23 ± 5% | 34.5 nM | 550% | 3.84 nM | 70%
